Data set [1] in a line: PAMPA (parallel artificial membrane permeability assay). The settings on record: PAMPA; membrane permeation rate (Pe); 50 mM MOPSO buffer pH 6.5 with 5.0% glycocholic acid, 37° C., 18 hours; read-out: iPAMPA Pe. The format is in vitro ADME. The method in brief:
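Artificial membrane was 10% (w/v) egg lecithin plus 0.5% (w/v) cholesterol in dodecane on a PVDF filter. A 10 mM DMSO stock was added at 0.5% (v/v) to donor buffer (50 mM MOPSO, pH 6.5, 5.0% glycocholic acid). After 18 h at 37 °C, LC/MS or LC/UV gave donor and acceptor levels for Pe.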

The nature of data set [2]: Metabolic stability in human hepatic microsome. The settings on record: microsomes, pH 7.4; human hepatic microsome, NADPH(+); read-out: CL NADPH(+). The format is in vitro ADME.

Starred links: 1 amine or outer side, 2 acyl side, 3 side chain; linkers in the order of their positions; H or OH if unused. Positions of bridges follow the written chain, without caps; N, C: chain ends. Non-standard residues stand in square brackets, D forms with d. Residues, ends and D or L forms follow the SMILES beside them. *: point of attachment. NMeF = CN[C@@H](Cc1ccccc1)C(=O)O; NMeGABA = CN(CCCC(=O)[*:2])[*:1]; NMeβAla = CN(CCC(=O)[*:2])[*:1]; NMeL = CN[C@@H](CC(C)C)C(=O)O; NMeV = CN[C@H](C(=O)O)C(C)C; NMeA = CN[C@@H](C)C(=O)O; Piperidide = C1CCN(*)CC1; dNMeA = CN[C@H](C)C(=O)O; Sar = CNCC(=O)O

Here are results for 17 compounds from US9409952B2, “Peptide-compound cyclization method” (Chugai Seiyaku Kabushiki Kaisha, priority 2011, dated 2016).

Turning to `CC(C)C[C@H]1C(=O)N(C)[C@@H](C)C(=O)N[C@@H](C)C(=O)N(C)[C@@H](C)C(=O)N(C)[C@@H](Cc2ccccc2)C(=O)N(C)[C@@H](C)C(=O)N[C@@H]([C@@H](C)O)C(=O)N(C)[C@@H](C)C(=O)N(C)[C@@H](C)C(=O)N[C@H](C(=O)N(C)[C@@H](Cc2ccccc2)C(=O)N[C@@H](C)C(=O)N2CCCCC2)CC(=O)N(C)[C@@H](C)C(=O)N1C` [DP-368] ([NMeA][NMeL][NMeA]A[NMeA][NMeF][NMeA]T[NMeA][NMeA]D[NMeF]A-Piperidide; lactam N-11), the Papp at 18 hours, 50 µM in data set [1] was 1.6 ×10⁻⁶ cm/s. Besides, the microsomal CLint at 1 uM in data set [2] came to 6 µL/min/mg.
The matching figures for `CC(C)C[C@H]1C(=O)N[C@@H]([C@@H](C)O)C(=O)N(C)[C@@H](C)C(=O)N[C@H](C(=O)N(C)[C@@H](Cc2ccccc2)C(=O)N[C@@H](C)C(=O)N2CCCCC2)CC(=O)N(C)CCC(=O)N(C)[C@@H](C(C)C)C(=O)N(C)[C@@H](Cc2ccccc2)C(=O)N(C)[C@@H](Cc2ccccc2)C(=O)N[C@@H](C)C(=O)N(C)[C@@H](C)C(=O)N1C` [DP-370] ([NMeβAla][NMeV][NMeF][NMeF]A[NMeA][NMeL]T[NMeA]D[NMeF]A-Piperidide; lactam N-10): 25 ×10⁻⁶ cm/s and 36 µL/min/mg.
The corresponding values for `CC[C@H](C)[C@@H]1NC(=O)CN(C)C(=O)[C@H](Cc2ccccc2)N(C)C(=O)[C@H](C)N(C)C(=O)[C@H]([C@@H](C)O)NC(=O)[C@H](CC(C)C)N(C)C(=O)[C@@H](C)N(C)C(=O)C[C@@H](C(=O)N(C)[C@@H](Cc2ccccc2)C(=O)N[C@@H](C)C(=O)N2CCCCC2)NC(=O)[C@H](C(C)C)N(C)C(=O)[C@H](CC(C)C)N(C)C1=O` [DP-371] ([dNMeA][NMeL]T[NMeA][NMeF][Sar]I[NMeL][NMeV]D[NMeF]A-Piperidide; lactam N-10) are 34 ×10⁻⁶ cm/s and 31 µL/min/mg.
The corresponding values for `CC(C)C[C@H]1C(=O)N(C)[C@@H](C(C)C)C(=O)N[C@@H](Cc2ccccc2)C(=O)N[C@H](C(=O)N(C)[C@@H](Cc2ccccc2)C(=O)N[C@@H](C)C(=O)N2CCCCC2)CC(=O)N(C)CCCC(=O)N[C@@H](C(C)C)C(=O)N(C)[C@@H](CC(C)C)C(=O)N[C@@H]([C@@H](C)O)C(=O)N(C)[C@@H](Cc2ccccc2)C(=O)NCC(=O)N1C` [DP-372] ([NMeGABA]V[NMeL]T[NMeF]G[NMeL][NMeV]FD[NMeF]A-Piperidide; lactam N-10) are 42 ×10⁻⁶ cm/s and 78 µL/min/mg.
For the compound `CC[C@H](C)[C@@H]1NC(=O)CN(C)C(=O)[C@H](Cc2ccccc2)N(C)C(=O)[C@H]([C@@H](C)O)NC(=O)[C@H](CC(C)C)N(C)C(=O)[C@H](C)N(C)C(=O)CCCN(C)C(=O)C[C@@H](C(=O)N(C)[C@@H](Cc2ccccc2)C(=O)N[C@@H](C)C(=O)N2CCCCC2)NC(=O)[C@H](C(C)C)N(C)C(=O)[C@H](CC(C)C)N(C)C1=O` [DP-374] ([NMeGABA][NMeA][NMeL]T[NMeF][Sar]I[NMeL][NMeV]D[NMeF]A-Piperidide; lactam N-10), the Papp at 18 hours, 50 µM in data set [1] worked out at 24 ×10⁻⁶ cm/s. In data set [2], the microsomal CLint at 1 uM was found to be 53 µL/min/mg.
The matching figures for `CC(C)C[C@H]1C(=O)N[C@@H](Cc2ccccc2)C(=O)N(C)[C@@H](C(C)C)C(=O)N(C)[C@@H](C)C(=O)N(C)[C@@H](Cc2ccccc2)C(=O)N[C@@H]([C@@H](C)O)C(=O)NCC(=O)N[C@H](C(=O)N(C)[C@@H](Cc2ccccc2)C(=O)N[C@@H](C)C(=O)N2CCCCC2)CC(=O)N(C)[C@@H](C)C(=O)N[C@@H](C)C(=O)N1C` [DP-375] ([NMeA]A[NMeL]F[NMeV][NMeA][NMeF]TGD[NMeF]A-Piperidide; lactam N-10): 19 ×10⁻⁶ cm/s and 39 µL/min/mg.
The matching figures for `CC(C)C[C@H]1C(=O)N(C)[C@@H](C)C(=O)N[C@H](C(=O)N(C)[C@@H](Cc2ccccc2)C(=O)N[C@@H](C)C(=O)N2CCCCC2)CC(=O)N(C)[C@@H](C)C(=O)N(C)[C@@H](C)C(=O)N(C)[C@@H](Cc2ccccc2)C(=O)N[C@@H]([C@@H](C)O)C(=O)N(C)[C@@H](C)C(=O)N(C)[C@@H](Cc2ccccc2)C(=O)N[C@@H](C)C(=O)N1C` [DP-377] ([NMeA][NMeA][NMeF]T[NMeA][NMeF]A[NMeL][NMeA]D[NMeF]A-Piperidide; lactam N-10): 23 ×10⁻⁶ cm/s and 70 µL/min/mg.
For the compound `CC(C)C[C@H]1C(=O)NCC(=O)N[C@H](C(=O)N(C)[C@@H](Cc2ccccc2)C(=O)N[C@@H](C)C(=O)N2CCCCC2)CC(=O)N[C@@H](C)C(=O)N[C@@H]([C@@H](C)O)C(=O)N(C)[C@@H](C)C(=O)N(C)[C@@H](Cc2ccccc2)C(=O)N[C@@H](C(C)C)C(=O)N(C)[C@@H](Cc2ccccc2)C(=O)N1C` [DP-378] (AT[NMeA][NMeF]V[NMeF][NMeL]GD[NMeF]A-Piperidide; lactam N-9), in data set [1], the Papp at 18 hours, 50 µM turned out to be 31 ×10⁻⁶ cm/s. Besides, the microsomal CLint at 1 uM in data set [2] was determined as 219 µL/min/mg.
The corresponding values for `CC(C)C[C@H]1C(=O)N[C@H](C(=O)N(C)[C@@H](Cc2ccccc2)C(=O)N[C@@H](C)C(=O)N2CCCCC2)CC(=O)N(C)CCC(=O)N[C@@H]([C@@H](C)O)C(=O)N(C)[C@@H](C)C(=O)N(C)[C@@H](CC(C)C)C(=O)N[C@@H](C(C)C)C(=O)N(C)[C@@H](Cc2ccccc2)C(=O)N[C@@H](Cc2ccccc2)C(=O)N1C` [DP-379] ([NMeβAla]T[NMeA][NMeL]V[NMeF]F[NMeL]D[NMeF]A-Piperidide; lactam N-9) are 41 ×10⁻⁶ cm/s and 236 µL/min/mg.
The corresponding values for `CC(C)C[C@H]1C(=O)N[C@@H](C(C)C)C(=O)N[C@H](C(=O)N(C)[C@@H](Cc2ccccc2)C(=O)N[C@@H](C)C(=O)N2CCCCC2)CC(=O)N[C@H](C)C(=O)N(C)[C@@H](C)C(=O)N(C)[C@@H](Cc2ccccc2)C(=O)N(C)[C@@H](CC(C)C)C(=O)N[C@@H]([C@@H](C)O)C(=O)N(C)CC(=O)N1C` [DP-380] ([dA][NMeA][NMeF][NMeL]T[Sar][NMeL]VD[NMeF]A-Piperidide; lactam N-9) are 17 ×10⁻⁶ cm/s and 58 µL/min/mg.
On to `CC(C)C[C@H]1C(=O)N[C@H](C(=O)N(C)[C@@H](Cc2ccccc2)C(=O)N[C@@H](C)C(=O)N2CCCCC2)CC(=O)N(C)[C@H](C)C(=O)N(C)[C@@H](CC(C)C)C(=O)N(C)[C@@H](C)C(=O)N[C@@H]([C@@H](C)O)C(=O)N[C@@H](Cc2ccccc2)C(=O)N(C)[C@@H](Cc2ccccc2)C(=O)N[C@@H](C(C)C)C(=O)N1C` [DP-381] ([dNMeA][NMeL][NMeA]TF[NMeF]V[NMeL]D[NMeF]A-Piperidide; lactam N-9), for which the Papp at 18 hours, 50 µM in data set [1] came to 45 ×10⁻⁶ cm/s. Further, in data set [2], the microsomal CLint at 1 uM was found to be 84 µL/min/mg.
The matching figures for `CC(C)C[C@H]1C(=O)NCC(=O)N[C@H](C(=O)N(C)[C@@H](Cc2ccccc2)C(=O)N[C@@H](C)C(=O)N2CCCCC2)CC(=O)N[C@H](C(C)C)C(=O)N[C@@H]([C@@H](C)O)C(=O)N(C)[C@@H](C)C(=O)N(C)[C@@H](Cc2ccccc2)C(=O)N[C@@H](C(C)C)C(=O)N(C)[C@@H](Cc2ccccc2)C(=O)N1C` [DP-382] ([dV]T[NMeA][NMeF]V[NMeF][NMeL]GD[NMeF]A-Piperidide; lactam N-9): 49 ×10⁻⁶ cm/s and 188 µL/min/mg.
The matching figures for `CC(C)C[C@H]1C(=O)N[C@@H](Cc2ccccc2)C(=O)N[C@H](C(=O)N(C)[C@@H](Cc2ccccc2)C(=O)N[C@@H](C)C(=O)N2CCCCC2)CC(=O)N(C)CCCC(=O)N[C@@H]([C@@H](C)O)C(=O)N(C)CC(=O)N(C)[C@@H](C)C(=O)N[C@@H](C(C)C)C(=O)N(C)[C@@H](Cc2ccccc2)C(=O)N1C` [DP-383] ([NMeGABA]T[Sar][NMeA]V[NMeF][NMeL]FD[NMeF]A-Piperidide; lactam N-9): 14 ×10⁻⁶ cm/s and 138 µL/min/mg.
The matching figures for `CC[C@H](C)[C@@H]1NC(=O)[C@H](C)N(C)C(=O)[C@H]([C@@H](C)O)NC(=O)[C@H](Cc2ccccc2)N(C)C(=O)[C@H](CC(C)C)N(C)C(=O)CCCN(C)C(=O)C[C@@H](C(=O)N(C)[C@@H](Cc2ccccc2)C(=O)N[C@@H](C)C(=O)N2CCCCC2)NC(=O)[C@H](C(C)C)N(C)C(=O)[C@H](CC(C)C)N(C)C1=O` [DP-384] ([NMeGABA][NMeL][NMeF]T[NMeA]I[NMeL][NMeV]D[NMeF]A-Piperidide; lactam N-9): 26 ×10⁻⁶ cm/s and 214 µL/min/mg.
Turning to `CC(C)C[C@H]1C(=O)N[C@H](C(=O)N(C)[C@@H](Cc2ccccc2)C(=O)N[C@@H](C)C(=O)N2CCCCC2)CC(=O)N(C)CCCC(=O)N[C@@H](C(C)C)C(=O)N(C)[C@@H](Cc2ccccc2)C(=O)N(C)[C@@H](CC(C)C)C(=O)N[C@@H]([C@@H](C)O)C(=O)N(C)[C@@H](C)C(=O)N(C)CC(=O)N1C` [DP-385] ([NMeGABA]V[NMeF][NMeL]T[NMeA][Sar][NMeL]D[NMeF]A-Piperidide; lactam N-9), the Papp at 18 hours, 50 µM in data set [1] was 18 ×10⁻⁶ cm/s. Also, the microsomal CLint at 1 uM in data set [2] was found to be 102 µL/min/mg.
As for `CC(C)C[C@H]1C(=O)N[C@H](C(=O)N(C)[C@@H](Cc2ccccc2)C(=O)N[C@@H](C)C(=O)N2CCCCC2)CC(=O)N(C)[C@@H](C)C(=O)N[C@@H]([C@@H](C)O)C(=O)N(C)[C@@H](C)C(=O)N(C)[C@@H](CC(C)C)C(=O)N[C@@H](C(C)C)C(=O)N(C)[C@@H](Cc2ccccc2)C(=O)N[C@@H](Cc2ccccc2)C(=O)N1C` [DP-386] ([NMeA]T[NMeA][NMeL]V[NMeF]F[NMeL]D[NMeF]A-Piperidide; lactam N-9), the Papp at 18 hours, 50 µM in data set [1] turned out to be 54 ×10⁻⁶ cm/s. Also, in data set [2], the microsomal CLint at 1 uM is 222 µL/min/mg.
Regarding `CC(C)C[C@H]1C(=O)N(C)[C@@H](C)C(=O)N[C@H](C(=O)N(C)[C@@H](Cc2ccccc2)C(=O)N[C@@H](C)C(=O)N2CCCCC2)CC(=O)N(C)CC(=O)N[C@@H](C(C)C)C(=O)N(C)[C@@H](Cc2ccccc2)C(=O)N(C)[C@@H](CC(C)C)C(=O)N[C@@H]([C@@H](C)O)C(=O)N(C)CC(=O)N1C` [DP-388] ([Sar]V[NMeF][NMeL]T[Sar][NMeL][NMeA]D[NMeF]A-Piperidide; lactam N-9), in data set [1], the Papp at 18 hours, 50 µM came to 11 ×10⁻⁶ cm/s. In addition, the microsomal CLint at 1 uM in data set [2] worked out at 41 µL/min/mg.
